Source: US12257214B2, “Compositions and methods comprising deoxy-pentitols” (The Charlotte Mecklenburg Hospital Authority, priority 2021, dated 2025)

What was measured:
A-498 = assay: ATPlite cell IC50 screening, A-498; format: cell-based; settings: Homo sapiens, A498; A-498, Renal cell carcinoma; ATPlite luminescence
Experimental: (§1) In brief, the cells were cultures in relevant medium and treated with a range of 9 doses of 2-deoxyribitol, from 10 mM, 5 mM, 2.5 mM, 1.25 mM, 0.62 mM, 0.31 mM, 0.08 mM, and 0.04 mM. Cells were diluted in the corresponding ATCC recommended medium and dispensed in a 384-well plate, depending on the cell line used, at a density of 100-6400 cells per well in 45 μl medium. For each used cell line the optimal cell density was used. The margins of the plate were filled with phosphate-buffered saline. Plated cells were incubated in a humidified atmosphere of 5% CO2 at 37° C. After 24 hours, 5 μl of compound dilution was added and plates were further incubated. At the end of experiment (t=end), 24 μl of ATPlite 1Step™ (PerkinElmer) solution was added to each well, and subsequently shaken for 2 minutes. After 10 minutes of incubation in the dark, the luminescence was recorded on an Envision multimode reader (PerkinElmer). IC50 was determined in comparison with the control samples. The cell lines tested and their corresponding disease model is indicated the left-most and middle columns, respectively. IC50 values are given in μM values in the right-most column. This screening was performed of a list of cancer cells to establish IC50 values for each of the cancer cell lines. This screening provides evidence for the potential of 2DR to treat many cancer types.

A-549 = assay: ATPlite cell IC50 screening, A-549; format: cell-based; settings: Homo sapiens, A549; A-549, Lung adenocarcinoma; ATPlite luminescence
Experimental: as §1

ACHN = assay: ATPlite cell IC50 screening, ACHN; format: cell-based; settings: Homo sapiens, Papillary renal cell carcinoma, ATPlite luminescence
Experimental: as §1

C-33 A = assay: ATPlite cell IC50 screening, C-33 A; format: cell-based; settings: Homo sapiens, Cervical squamous cell carcinoma, ATPlite luminescence
Experimental: as §1

COLO 205 = assay: ATPlite cell IC50 screening, COLO 205; format: cell-based; settings: Homo sapiens; COLO 205, Colon adenocarcinoma; ATPlite luminescence
Experimental: as §1

DB = assay: ATPlite cell IC50 screening, DB; format: cell-based; settings: Homo sapiens, Diffuse large B-cell lymphoma, ATPlite luminescence
Experimental: as §1

DLD-1 = assay: ATPlite cell IC50 screening, DLD-1; format: cell-based; settings: Homo sapiens; DLD-1, Colon adenocarcinoma; ATPlite luminescence
Experimental: as §1

ES-2 = assay: ATPlite cell IC50 screening, ES-2; format: cell-based; settings: Homo sapiens; ES-2, Ovarian clear cell adenocarcinoma; ATPlite luminescence
Experimental: as §1

HCT 116 = assay: ATPlite cell IC50 screening, HCT 116; format: cell-based; settings: Homo sapiens; HCT 116, Colon carcinoma; ATPlite luminescence
Experimental: as §1

HuTu 80 = assay: ATPlite cell IC50 screening, HuTu 80; format: cell-based; settings: Homo sapiens, HuTu80; HuTu 80, Duodenal adenocarcinoma; ATPlite luminescence
Experimental: as §1

JAR = assay: ATPlite cell IC50 screening, JAR; format: cell-based; settings: Gestational choriocarcinoma, ATPlite luminescence
Experimental: as §1

Jurkat E6.1 = assay: ATPlite cell IC50 screening, Jurkat E6.1; format: cell-based; settings: Homo sapiens; Jurkat E6.1, Childhood T acute lymphoblastic leukemia; ATPlite luminescence
Experimental: as §1

KU812 = assay: ATPlite cell IC50 screening, KU812; format: cell-based; settings: Homo sapiens; KU812, Chronic myelogenous leukemia; ATPlite luminescence
Experimental: as §1

LS 174T = assay: ATPlite cell IC50 screening, LS 174T; format: cell-based; settings: Homo sapiens, LS174T, Colon adenocarcinoma, ATPlite luminescence
Experimental: as §1

MG-63 = assay: ATPlite cell IC50 screening, MG-63; format: cell-based; settings: Homo sapiens; MG-63, Osteosarcoma; ATPlite luminescence
Experimental: as §1

MOLT-4 = assay: ATPlite cell IC50 screening, MOLT-4; format: cell-based; settings: Homo sapiens; MOLT-4, Adult T acute lymphoblastic leukemia; ATPlite luminescence
Experimental: as §1

PA-1 = assay: ATPlite cell IC50 screening, PA-1; format: cell-based; settings: Homo sapiens; PA-1, Ovarian mixed germ cell tumor; ATPlite luminescence
Experimental: as §1

PC-3 = assay: ATPlite cell IC50 screening, PC-3; format: cell-based; settings: Homo sapiens; PC-3, Prostate carcinoma; ATPlite luminescence
Experimental: as §1

RKO = assay: ATPlite cell IC50 screening, RKO; format: cell-based; settings: Homo sapiens, Colon carcinoma, ATPlite luminescence
Experimental: as §1

RL = assay: ATPlite cell IC50 screening, RL; format: cell-based; settings: Homo sapiens, Diffuse large B-cell lymphoma, ATPlite luminescence
Experimental: as §1

RL95-2 = assay: ATPlite cell IC50 screening, RL95-2; format: cell-based; settings: Homo sapiens; RL95-2, Endometrial adenosquamous carcinoma; ATPlite luminescence
Experimental: as §1

SU-DHL-6 = assay: ATPlite cell IC50 screening, SU-DHL-6; format: cell-based; settings: Homo sapiens; SU-DHL-6, Diffuse large B-cell lymphoma; ATPlite luminescence
Experimental: as §1

THP-1 = assay: ATPlite cell IC50 screening, THP-1; format: cell-based; settings: Homo sapiens; THP-1, Childhood acute monocytic leukemia; ATPlite luminescence
Experimental: as §1

[1] = tested on: breast cancer cell line MCF7; assay: MCF7 cell culture, growth and death (FIG. 2); format: cell-based; settings: 3 day treatment
Experimental: From left-top-to-bottom: Control, 0.4 mM Drug, 2 mM rib, and 10 mM Drug; From right-top-to-bottom: 0.4 mM rib; 2 mM Drug; 10 mM rib; and 50 mM Drug.
However, this effect was not related to the enhanced expression of glycosylation of α-DG.

[2] = tested on: normal human myoblasts (HSKM cells); assay: Normal human myoblast culture (FIG. 7); format: cell-based; settings: HSKM cells, 2, 10, 20 mM, 3 days
Experimental: Three different doses were tested as labeled in the images: 2 mM (top right panel), 10 mM (bottom left panel), and 20 mM (bottom right panel) 2-deoxyribitol. No-drug control is shown in top left panel. Drug effect on growth of the cells is not clearly visible.
In contrast, 2-deoxyribitol produced unnoticeable changes in cell culture of normal human myoblasts or differentiated myotubes (FIG. 7), indicating its low toxicity potential to normal cell populations. In this study, normal human myoblasts (HSKM cells) were treated with 2-deoxyribitol (Drug) for 3 days.

Water solubility = format: physicochemical
Description: It can be delivered by direct application to local areas, given orally or through vasculature system. 2-deoxyribitol can also be delivered before, at the same time, or after the use of other drugs. 2-deoxyribitol can be applied as treatment for cancers before, at the same time, or after any other treatment procedure(s). In addition, the effect of 2-deoxyribitol on three tissue types of cancers indicate that it can be applied for many other epithelial cancers.

OCC[C@H](O)[C@H](O)CO [2-deoxyribitol]
IC50 (A-498): 8.73 mM | IC50 (A-549): 9.97 mM | IC50 (ACHN): 3.14 mM | IC50 (C-33 A): 7.6 mM | IC50 (COLO 205): 4.54 mM | IC50 (DB): 4.08 mM | IC50 (DLD-1): 4.53 mM | IC50 (ES-2): 8.74 mM | IC50 (HCT 116): 5.73 mM | IC50 (HuTu 80): 4.92 mM | IC50 (JAR): 3.6 mM | IC50 (Jurkat E6.1): 4.65 mM | IC50 (KU812): 4.3 mM | IC50 (LS 174T): 2.52 mM | IC50 (MG-63): 9.27 mM | IC50 (MOLT-4): 4.94 mM | IC50 (PA-1): 3.49 mM | IC50 (PC-3): 3.68 mM | IC50 (RKO): 5.77 mM | IC50 (RL): 3.4 mM | IC50 (RL95-2): 6.42 mM | IC50 (SU-DHL-6): 4.06 mM | IC50 (THP-1): 5.19 mM | effect on cell growth, death and morphology ([1]; MCF7, 0.4-50 mM): dose-dependent inhibition in cell growth and increase in cell death | cells survive compared to the control ([1]; MCF7, dose of 10 mM or higher): about 10% | cell density or myofiber formation versus control [2]: No difference in cell density or myofiber formation | water solubility (Water solubility): water soluble
